Drawing on patent US6723753B2, “Substituted n-benzyl-n-phenyl aminoalcohol compounds useful for inhibiting cholesteryl ester transfer protein activity” (Pharmacia Corporation, priority 2002, dated 2004), this text covers IC50 for 59 compounds.

The target of this experiment is T1, CETP (Homo sapiens, UniProt P11597).
T1 sequence (P11597 18-493): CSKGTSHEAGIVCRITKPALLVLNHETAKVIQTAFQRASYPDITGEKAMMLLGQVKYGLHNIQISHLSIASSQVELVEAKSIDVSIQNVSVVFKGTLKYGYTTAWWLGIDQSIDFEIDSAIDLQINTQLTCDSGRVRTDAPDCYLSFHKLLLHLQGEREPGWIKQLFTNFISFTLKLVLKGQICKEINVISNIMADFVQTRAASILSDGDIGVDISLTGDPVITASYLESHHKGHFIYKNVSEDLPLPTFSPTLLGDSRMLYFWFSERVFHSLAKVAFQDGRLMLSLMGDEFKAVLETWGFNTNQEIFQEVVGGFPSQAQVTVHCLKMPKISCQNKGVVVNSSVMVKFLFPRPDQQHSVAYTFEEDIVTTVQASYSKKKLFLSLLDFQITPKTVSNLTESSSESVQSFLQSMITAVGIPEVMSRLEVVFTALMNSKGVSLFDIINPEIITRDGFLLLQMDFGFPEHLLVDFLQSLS
The experiment in a line: Assay of CETP Inhibition using Purified Components (Reconstituted Buffer Assay). It counts as biochemical. Set-up: made in house; host or cells: CHO cells (serum-free conditioned medium). Conditions: transfer of [3H]CE from HDL to LDL. The procedure, abridged: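 Purified human recombinant CETP from transfected CHO cells was incubated with [^3H]CE-labeled HDL donor and LDL acceptor in Tris pH 7.4/NaCl/EDTA/1% BSA buffer for 2 h at 37 °C. LDL was then precipitated with dextran sulfate/MgCl2, filtered, and counted by liquid scintillation to give IC50 for CE transfer.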

Where [1] appears, read: IC50, Inhibition of CETP activity in reconstituted buffer assay.
The mark [2] stands for this setting: Inhibition of CETP activity in reconstituted buffer assay, read-out: IC50.

pIC50: −log10 of the molar value. Like-named read-outs stand apart in the source and are kept apart here.

Under setting [1], `OC(CN(Cc1cccc(OC(F)(F)F)c1)Cc1cccc(OC(F)(F)F)c1)C(F)(F)F` (centres unmarked) [compound 192] gave a pIC50 of 4.64.
For `Cc1ccc(CN(Cc2cccc(F)c2)CC(O)C(F)(F)F)cc1` (centres unmarked) [compound 178], the pIC50 under setting [2] was < 4.00.
The same measure, in the same setting: to `Cc1cccc(CN(CC(O)C(F)(F)F)c2cc(F)cc(F)c2)c1` (centres unmarked) [Example 81] belongs < 4.00.
Consider `Oc1cc(CN(CC(O)C(F)(F)F)c2cccc(OC(F)(F)F)c2)cc(O)c1O` (centres unmarked) [Example 359], for which the pIC50 under setting [2] is < 4.00.
For `CS(=O)(=O)c1ccc(S(=O)(=O)c2cccc(N(Cc3cccc(OC(F)(F)C(F)F)c3)CC(O)C(F)(F)F)c2)cc1` (centres unmarked) [Example 487], the pIC50 under setting [2] is < 4.30.
Regarding `OC(CN(Cc1cccc(Cc2ccccc2)c1)c1cccc(Oc2ccccc2)c1)C(F)(F)F` (centres unmarked) [Example 596, 3-[(3-phenoxyphenyl)[[3-(phenylmethyl)phenyl]methyl]amino]-1,1,1-trifluoro-2-propanol], the pIC50 under setting [2] is 4.89.
Consider `OC(CN(Cc1cccc(Oc2cccc(C(F)(F)F)c2)c1)c1ccc(C(F)(F)F)cc1)C(F)(F)F` (centres unmarked) [Example 110], for which the pIC50 under setting [2] was 4.22.
Still for that read-out and setting: the result for `CC(C)c1ccc(COc2cccc(N(Cc3cccc(OC(F)(F)C(F)F)c3)CC(O)C(F)(F)F)c2)cc1` (centres unmarked) [Example 427] reads 6.38.
`COc1ccc(Oc2cccc(CN(CC(O)C(F)(F)F)c3cccc(F)c3)c2)cc1` (centres unmarked) [Example 675]: the pIC50 under setting [2] is < 4.00.
Take `OC(CN(Cc1cccc(-c2ccccc2)c1)c1cccc(Oc2ccccc2)c1)C(F)(F)F` (centres unmarked) [Example 606]: the negative logarithm of the IC50 (pIC50) under setting [2] was 5.38.
The same measure, in the same setting: to `OC(CN(Cc1ccc(Cl)cc1)Cc1ccccc1C(F)(F)F)C(F)(F)F` (centres unmarked) [compound 176] belongs < 4.00.
With `OC(CN(Cc1cccc(OC(F)(F)C(F)F)c1)c1cccc(Oc2ccccc2F)c1)C(F)(F)F` (centres unmarked) [Example 223], the pIC50 under setting [2] is 6.54.
Take `OC(CN(Cc1cccc(OC(F)(F)C(F)F)c1)c1cccc(OCc2ccc(OCc3ccccc3)cc2)c1)C(F)(F)F` (centres unmarked) [Example 413]: the pIC50 under setting [2] was 4.77.
For `OC(CN(Cc1ccc(Cl)cc1)Cc1cccc(C(F)(F)F)c1)C(F)(F)F` (centres unmarked) [compound 186], the pIC50 under setting [2] is 4.82.
For `CN(C)CCOc1cccc(N(Cc2cccc(OC(F)(F)C(F)F)c2)CC(O)C(F)(F)F)c1` (centres unmarked) [Example 511], the pIC50 under setting [2] is < 4.30.
As to `CCCCCCCCc1ccc(N(Cc2cccc(OC(F)(F)F)c2)CC(O)C(F)(F)F)cc1` (centres unmarked) [Example 88], under setting [2], the pIC50 was 4.12.
For `O=C(NCc1ccc(F)cc1)c1cccc(N(Cc2cccc(OC(F)(F)C(F)F)c2)CC(O)C(F)(F)F)c1` (centres unmarked) [Example 467], the pIC50 under setting [2] is < 4.30.
Take `CCCN(C)C(=O)c1cccc(CN(CC(O)C(F)(F)F)c2cccc(Oc3ccccc3)c2)c1` (centres unmarked) [compound 614]: the negative-log IC50 (pIC50) under setting [2] is < 4.00.
As for `OC(COC(F)(F)C(F)F)CN(Cc1cccc(OC(F)(F)C(F)F)c1)c1cccc(Oc2ccccc2)c1` (centres unmarked) [Example 212], the pIC50 under setting [2] was 5.74.
Take `Cc1cccc(CN(Cc2ccc(F)cc2)CC(O)C(F)(F)F)c1` (centres unmarked) [compound 182]: the pIC50 under setting [2] is < 4.00.
Take `OC(CN(Cc1cccc(C(F)(F)F)c1)c1ccc(C#Cc2ccccc2)c(C(F)(F)F)c1)C(F)(F)F` (centres unmarked) [Example 622]: the pIC50 under setting [2] was 5.46.
For `Cc1cccc(N(Cc2ccc(OC(F)(F)F)cc2)CC(O)C(F)(F)F)c1` (centres unmarked) [Example 61], the pIC50 under setting [2] is 4.64.
As to `Cc1cccc(CN(CC(O)C(F)(F)F)c2ccccc2C)c1` (centres unmarked) [Example 27], the pIC50 under setting [2] is < 4.00.
Compound `Cc1cccc(N(Cc2cccc(C(F)(F)F)c2)CC(O)C(F)(F)F)c1` (centres unmarked) [Example 25] had a pIC50 under setting [1] of 5.00.
Turning to `OC(CN(Cc1ccccc1Cl)Cc1ccccc1C(F)(F)F)C(F)(F)F` (centres unmarked) [compound 177], the pIC50 under setting [2] is < 4.00.
`Oc1cccc(N(Cc2cccc(OC(F)(F)F)c2)CC(O)C(F)(F)F)c1` (centres unmarked) [Example 692]: under setting [2], the pIC50 is 4.80.
Still for that read-out and setting: to `OC(CN(Cc1cccc(OC(F)(F)C(F)F)c1)c1cccc(-c2ccc(F)cc2)c1)C(F)(F)F` (centres unmarked) [Example 568] belongs 5.85; to `Cc1ccccc1N(Cc1ccccc1)CC(O)C(F)(F)F` (centres unmarked) [Example 15], < 4.00; to `OC(CN(Cc1cccc(OC(F)(F)C(F)F)c1)c1cccc(Sc2ccccc2)c1)C(F)(F)F` (centres unmarked) [compound 290], 5.09.
The same measure, in the same setting: to `OC(CN(Cc1cccc(OC(F)(F)F)c1)c1ccccc1)C(F)(F)F` (centres unmarked) [Example 73] belongs 5.52; to `OC(CN(Cc1nc2ccccc2[nH]1)c1cccc(OC(F)(F)F)c1)C(F)(F)F` (centres unmarked) [Example 364], < 4.00; to `OC(CN(Cc1cccc(C(F)(F)F)c1)Cc1ccccc1F)C(F)(F)F` (centres unmarked) [compound 184], < 4.00.
Regarding `OC(CN(Cc1cccc(OC(F)(F)C(F)F)c1)c1cccc(OCc2cccc(Oc3ccccc3)c2)c1)C(F)(F)F` (centres unmarked) [Example 426], the pIC50 under setting [2] was 5.60.
The same measure, in the same setting: to `O=[N+]([O-])c1cccc(CN(Cc2cccc(OC(F)(F)F)c2)CC(O)C(F)(F)F)c1` (centres unmarked) [compound 197] belongs 4.74; to `CSc1ccc(Cc2cccc(N(Cc3cccc(OC(F)(F)C(F)F)c3)CC(O)C(F)(F)F)c2)cc1` (centres unmarked) [Example 526], 5.85.
On to `OC(CN(Cc1cccc(OC(F)(F)F)c1)c1ccc(F)c(F)c1)C(F)(F)F` (centres unmarked) [Example 78], for which the negative logarithm of the IC50 (pIC50) under setting [2] was 5.00.
Still for that read-out and setting: the result for `N#Cc1ccc(COc2cccc(N(Cc3cccc(OC(F)(F)C(F)F)c3)CC(O)C(F)(F)F)c2)cc1` (centres unmarked) [Example 384] reads 5.80.
In the case of `OC(CN(Cc1ccc(OC(F)(F)F)cc1)c1ccccc1)C(F)(F)F` (centres unmarked) [Example 59], the pIC50 under setting [2] is 5.15.
For the compound `OC(CN(Cc1cccc(OC(F)(F)C(F)F)c1)c1cccc(Nc2ccc(OC(F)(F)F)cc2)c1)C(F)(F)F` (centres unmarked) [Example 308], the pIC50 under setting [2] is 4.82.
Take `Cc1cc(-c2cccc(N(Cc3cccc(OC(F)(F)C(F)F)c3)CC(O)C(F)(F)F)c2)cc(C)c1N(C)C` (centres unmarked) [Example 563]: the pIC50 under setting [2] is < 4.30.
Still for that read-out and setting: to `COc1cccc(CN(CC(O)C(F)(F)F)c2cccc(OC(F)(F)F)c2)c1` (centres unmarked) [Example 121] belongs < 4.00; to `OC(CN(Cc1cccc(OC(F)(F)F)c1)c1cccc(Cc2cccc(N(Cc3cccc(OC(F)(F)F)c3)CC(O)C(F)(F)F)c2)c1)C(F)(F)F` (centres unmarked) [Example 665, 1,1′-[methylenebis[3,1-phenylene[[[3-(trifluoromethoxy)phenyl]methyl]imino]]]bis[3,3,3-trifluoro-2-propanol]], 4.10.
Still for that read-out and setting: to `O=S(=O)(Nc1cccc(N(Cc2cccc(OC(F)(F)C(F)F)c2)CC(O)C(F)(F)F)c1)c1ccc(F)c(Cl)c1` (centres unmarked) [Example 533] belongs < 4.30; to `OC(CN(Cc1cccc(OC(F)(F)C(F)F)c1)c1cccc(Cc2ccc(F)c(Cl)c2)c1)C(F)(F)F` (centres unmarked) [Example 524], 5.92; to `Cc1cccc(CN(CC(O)C(F)(F)F)c2ccc(Cl)c(C(F)(F)F)c2)c1` (centres unmarked) [Example 67], 4.82.
Turning to `COc1ccc(-c2cccc(N(Cc3cccc(OC(F)(F)C(F)F)c3)CC(O)C(F)(F)F)c2)cc1C` (centres unmarked) [Example 562], the pIC50 under setting [2] is 5.68.
As for `OC(CN(Cc1cccc(OC(F)(F)C(F)F)c1)c1cccc(-c2ccc(Cl)cc2Cl)c1)C(F)(F)F` (centres unmarked) [Example 567], under setting [2], the pIC50 was 6.26.
For `CCCC(Oc1cccc(N(Cc2cccc(OC(F)(F)C(F)F)c2)CC(O)C(F)(F)F)c1)C(=O)OCC` (centres unmarked) [Example 508], under setting [2], the pIC50 is 5.68.
For the compound `CCC(=O)COc1cccc(N(Cc2cccc(OC(F)(F)C(F)F)c2)CC(O)C(F)(F)F)c1` (centres unmarked) [Example 493], under setting [2], the pIC50 is 5.74.
Same read-out and setting: the result for `COCc1cccc(CN(CC(O)C(F)(F)F)c2cccc(Oc3ccccc3)c2)c1` (centres unmarked) [Example 627, 3-[[(3-phenoxyphenyl)(3,3,3-trifluoro-2-hydroxypropyl)amino]methyl]methoxymethylbenzene] reads 5.39; that for `O=S(=O)(Nc1cccc(N(Cc2cccc(OC(F)(F)C(F)F)c2)CC(O)C(F)(F)F)c1)c1cccc(C(F)(F)F)c1` (centres unmarked) [Example 531], < 4.30; that for `OC(CN(Cc1cccc(OC(F)(F)C(F)F)c1)c1cccc(OCc2cccnc2)c1)C(F)(F)F` (centres unmarked) [Example 428], 5.17.
Turning to `COc1ccc(CN(CC(O)C(F)(F)F)c2cccc(OC(F)(F)F)c2)cc1OCc1ccccc1` (centres unmarked) [Example 99], the pIC50 under setting [2] was < 4.00.
The same measure, in the same setting: to `O=C(NCc1cccc(OC(F)(F)F)c1)c1cccc(N(Cc2cccc(OC(F)(F)C(F)F)c2)CC(O)C(F)(F)F)c1` (centres unmarked) [Example 466] belongs 4.92.
Regarding `OC(CN(Cc1cccc(OC(F)(F)C(F)F)c1)c1cccc(OCc2cc(Cl)cc(Cl)c2)c1)C(F)(F)F` (centres unmarked) [Example 422], the pIC50 under setting [2] was 6.04.
The same measure, in the same setting: to `COc1ccc(CN(CC(O)C(F)(F)F)c2cccc(OC(F)(F)F)c2)cc1OC` (centres unmarked) [Example 116] belongs 4.40.
Regarding `CCCCN(C)C(=O)c1cccc(CN(CC(O)C(F)(F)F)c2cccc(Oc3ccccc3)c2)c1` (centres unmarked) [compound 615], the pIC50 under setting [2] was < 4.00.
Turning to `OC(CN(Cc1cccc(OC(F)(F)C(F)F)c1)c1cccc(OC2CCOCC2)c1)C(F)(F)F` (centres unmarked) [Example 507], under setting [2], the negative logarithm of the IC50 (pIC50) was 5.64.
In the case of `OC(CN(Cc1cccc(C(F)(F)F)c1)c1ccc(F)c(F)c1)C(F)(F)F` (centres unmarked) [Example 19], the pIC50 under setting [2] is 4.82.

Usually pIC50 stands for −log10 of the IC50, conventionally taken in molar units.
